From patent publication US8716279B2, “Pharmaceutical compositions of clonazepam and method of use thereof” (Jazz Pharmaceuticals, Inc., priority 2006, dated 2014)
In brackets after ≈: the same amount, converted by molar mass.

How the values were obtained:
[1] = Solubility of clonazepam in glycol ethers at 25° C.
Description: 10 mg of clonazepam was weighed into glass vials used in the Pfeiffer mono-dose spray system (Pfeiffer of America, Princeton, N.J.). Four samples of each of four solvents were prepared as follows. 130-μL of each solvent was pipetted into the vial, which was then stoppered with a black chlorobutyl rubber stopper.
The vials were removed from the chamber, placed inside polyethylene centrifuge vials, and centrifuged for 2 minutes at 5000 rpm. 10 μL of liquid was then sampled from each vial, accurately weighed, and diluted with 1 mL of acetonitrile. The drug concentration was analyzed by UV using an Agilent HPLC system with no column, 10 μL injection volume, acetonitrile mobile phase, 0.3 mL/min and UV detection at 350 nm.

[2] = oral; cited from earlier work
[3] = Solubility of clonazepam in neat solvents; conditions: neat PEG 300
Description: The solubility of clonazepam in a number of neat solvents was determined using standard methods.

[4] = Human pharmacokinetic, safety and tolerability study (oral, intravenous, intranasal cross-over)
Description: The human pharmacokinetics, safety, and tolerability of the clonazepam compositions of the present invention formulated for intranasal delivery for therapeutic applications are evaluated using standard clinical procedures. Clonazepam compositions formulated for intranasal delivery are provided, for example, for application by the participants to intranasal mucosa.
A primary objective of initial studies in humans is to determine and compare pharmacokinetic profiles of three dosage forms of clonazepam: oral, i.v., and intranasal, following single administration. An example of such a study in humans is a cross-over study performed in 12 healthy male volunteers. Plasma and urine level of clonazepam and 7-amino-clonazepam are determined, for example, using HPLC and UV detection. […] Further the initial studies in humans are used to determine local tolerability of intranasal formulation using questionnaire and the Visual Analog Scale (VAS). VAS is a validated instrument that has been used in numerous studies to quantify subjective opening of the nasal passages. In addition, cognitive, sleepiness and mood effects are evaluated using questionnaires and scales (see, e.g., Example 10 below). Further, attention and vigilance may be evaluated using, for example, LEEDS Psychomotor Multiple Choice Reaction Time (MCRT) testing.
A human pharmacokinetic study was carried out as described in Example 8.
15 young, healthy male volunteers received a single dose of 1 mg clonazepam by oral, intravenous and intranasal routes in a three-period cross-over design.

[5] = Drug recovery, degradation and binding to nasal sheep mucosa; format: in vitro ADME
Description: (i) Drug recovery, degradation and binding to nasal sheep mucosa: The effect of drug recovery, degradation and binding to sheep nasal mucosa was determined. Briefly, a known surface area (approx. 1 cm^2) of sheep nasal mucosa was added into a glass vial containing a known concentration (10 μg/mL) of each drug prepared in the receiver fluid (10% ethanol in pH 6 buffer). The content of the vial was allowed to equilibrate at 37° C. over a period of 48 h. At 24 h intervals, a sample was removed and assayed via HPLC. The percentage of drug recovered was calculated using Equation 4: % drug recovered=(drug concentration at t=Y/drug concentration at t=Z)×100 (Equation 4)
where, Y=specific time point at 37° C. (in the presence of nasal sheep mucosa); and Z=specific time point at 37° C. (in the absence of nasal sheep mucosa).
In addition to the stability against heat degradation, the effect of drug binding or degradation in the presence of nasal sheep mucosa was also determined (Table 6).

[6] = Solubilities of clonazepam in glycol ethers at 3 temperatures
Description: The vials were then centrifuged at −5° C. and 5° C. for the −15° C. and 5° C. samples, respectively, at 5000 rpm for 2 minutes.

## O=C1CN=C(c2ccccc2Cl)c2cc([N+](=O)[O-])ccc2N1 [Clonazepam, 5-(2-chlorophenyl)-1,3-dihydro-7-nitro-2H-1,4-benzodiazepin-2-one]
[1]; 1,2-dimethyxoethane, 100% solvent / 0% water, 25° C. (neat solvent value from Example 11, included for reference)
  Solubilities (mg/mL) of Clonazepam in Solvent/Water Solutions: 39.3 mg/mL
[1]; in 1,2-dimethyxoethane, 25 C.
  Solubility: 39.3 mg/mL (≈ 124 mM)
[2]
  time of maximum blood concentrations: one to two
[3]
  Solubility: 37.0 mg/mL (≈ 117 mM)
[4]; 1 mg
  Cmax of the intranasal route as % of that of the intravenous route: 17%
  Cmax of the intranasal route as % of that of the oral route: 93%
[4]; 1 mg single dose, intravenous, 15 volunteers
  median Tmax: 6 min
[4]; 1 mg, intranasal route
  mean Cmax (mean ±SD): 7.12 ± 3.81 ng/mL
[4]; 1 mg, intravenous route
  mean Cmax (mean ±SD): 42.5±10.8
[4]; 1 mg, oral route
  mean Cmax (mean ±SD): 7.64 ± 1.74 ng/mL
[4]; after intranasal dosing, 10 of 15
  subjects reporting somnolence: approximately 67%
[4]; after intranasal dosing, 12 of 15
  subjects reporting nasal discomfort: approximately 80%
[4]; after intravenous dosing
  subjects reporting sedation: 3/15
  subjects reporting somnolence: 11/15
  subjects reporting somnolence or sedation: Approximately 93%
[4]; after oral dosing, 13 of 15
  subjects reporting somnolence: approximately 87%
[5]; 37° C.
  degree of binding or degradation in the presence of nasal sheep mucosa: < 10%
[5]; 37° C. over 48 h
  drug recovered in the presence of nasal sheep mucosa: greater than 95%
[6]; in 1,2-dimethyxoethane, 5 C.
  Solubility: 35.7 mg/mL (≈ 113 mM)
[6]; in 1,2-dimethyxoethane, −15 C.
  Solubility: 35.2 mg/mL (≈ 111 mM)
[6]; in Di (ethylene glycol) methyl ether, 5 C.
  Solubility: 53.9 mg/mL (≈ 171 mM)
[6]; in Di (ethylene glycol) methyl ether, −15 C.
  Solubility: 58.1 mg/mL (≈ 184 mM)
[6]; in Di (ethyleneglycol) diethyl ether, 5 C.
  Solubility: 18.5 mg/mL (≈ 58.6 mM)
[6]; in Di (ethyleneglycol) diethyl ether, −15 C.
  Solubility: 19.5 mg/mL (≈ 61.8 mM)
[6]; in Diethylene glycol monoethyl ether, 5 C.
  Solubility: 37.7 mg/mL (≈ 119 mM)
[6]; in Diethylene glycol monoethyl ether, −15 C.
  Solubility: 43.3 mg/mL (≈ 137 mM)
